In patent publication US20250313574A1, “SIALIC ACID DERIVATIVES AND METHODS OF USING SAME” (EISAI R&D MANAGEMENT CO., LTD., priority 2022, published 2025):

Tests used:
[1] = target: Recombinant human CD33 protein (Homo sapiens (Human), UniProt P20138); experiment: CD33 competitive binding assay for HTS drug screen (fluorescent multivalent sialic acid probe)
How it was run: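 Inhibition was read as reduced retention of a fluorescent multivalent sialic acid complex (final 5 μM neutravidin, 15 μM A-375, 5 μM biotin-4-FITC) on plate-immobilized human CD33. Compound was added first, the probe followed for 30 min at room temperature in PBS with 0.2% Tween-20 and 0.5% BSA, and FITC was measured after a wash.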

[2] = target: Recombinant Human Siglec-3/CD33 protein (His-CD33) (Homo sapiens (Human), UniProt P20138); experiment: Differential scanning fluorimetry (DSF) thermal shift assay; type: binding
[3] = thermal melt shift of 0.5 μM CD33 protein with 50 μM compound
[4] = difference in thermal melt of CD33 protein (0.5 μM) with 50 μM compound

Recombinant human CD33 protein, sequence (P20138 18-259): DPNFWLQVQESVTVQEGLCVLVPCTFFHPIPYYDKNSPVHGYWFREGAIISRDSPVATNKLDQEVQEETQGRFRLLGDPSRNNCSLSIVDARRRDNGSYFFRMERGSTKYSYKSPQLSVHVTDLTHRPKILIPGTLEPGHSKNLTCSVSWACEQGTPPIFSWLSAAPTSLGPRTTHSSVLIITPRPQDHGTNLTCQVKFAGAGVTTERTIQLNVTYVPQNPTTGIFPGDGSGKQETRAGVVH
Recombinant Human Siglec-3/CD33 protein (His-CD33), sequence (P20138 18-259): as above

| SMILES | EC50 [1] [nM] | DSF (dTmD) [2, 3] | DSF (dTmD) [2, 4] [°C] |
| --- | --- | --- | --- |
| CC(=O)N[C@H]1[C@H]([C@H](O)[C@H](O)CNC(=O)c2ccc(O)c(C(F)(F)F)c2)O[C@@](CCN2CCOC[C@@]23CCN(C(=O)OC(C)(C)C)C3)(C(=O)O)C[C@@H]1O [A-147] | 127 | 10.6 |  |
| CC(=O)N[C@H]1[C@H]([C@H](O)[C@H](O)CNC(=O)c2cc(C)n(C)n2)O[C@@](CCN2CCOC[C@@]23CCN(C(=O)OC(C)(C)C)C3)(C(=O)O)C[C@@H]1O [A-154] | 137 | 9.3 |  |
| CC(=O)N[C@H]1[C@H]([C@H](O)[C@H](O)CNC(=O)c2cnn(C)c2)O[C@@](CCN2CCOC[C@@]23CCN(C(=O)OC(C)(C)C)C3)(C(=O)O)C[C@@H]1O [A-177] | 670 | 7.5 |  |
| CC(=O)N[C@H]1[C@H]([C@H](O)[C@H](O)CNC(=O)c2cc(C)c(O)c(C)c2)O[C@@](CCN2C[C@@H](C)OC[C@@]23CCN(C(=O)OC(C)(C)C)C3)(C(=O)O)C[C@@H]1O [A-004] | 98 | 9.1 |  |
| C=CC[C@]1(NCC[C@]2(C(=O)O)C[C@H](O)[C@@H](NC(C)=O)[C@H]([C@H](O)[C@H](O)CNC(=O)c3cc(C)c(O)c(C)c3)O2)CCN(C(=O)OC(C)(C)C)C1 [A-033] | 1610 | 6.1 |  |
| Cc1cc2cc(C)c1OCCCOC[C@H](NC(=O)C1CCCOC1)COC/C=C/C[C@]1(C(=O)O)C[C@H](O)[C@@H](NC(=O)Cn3cc(C4CCCCC4)nn3)[C@@H](O1)[C@H](O)[C@H](O)CNC2=O (some centres unmarked) [A-335] | 601 |  | 6.4 |
| CC(=O)N[C@H]1[C@H]([C@H](O)[C@H](O)CNC(=O)c2ccccc2)O[C@@](CCN2CCOC[C@@]23CCN(C(=O)OC(C)(C)C)C3)(C(=O)O)C[C@@H]1O [A-187] | 1010 | 6.8 |  |
| C=C[C@H]1CN(C(=O)OC(C)(C)C)C[C@@]1(C)NCC[C@]1(C(=O)O)C[C@H](O)[C@@H](NC(C)=O)[C@H]([C@H](O)[C@H](O)CNC(=O)c2cc(C)c(O)c(C)c2)O1 [A-034] | 880 | 6.7 |  |
| Cc1cc(C(=O)NC[C@@H](O)[C@@H](O)[C@@H]2O[C@@](C/C=C/c3cccc(CNC(=O)C4CCC(NS(C)(=O)=O)CC4)c3)(C(=O)O)C[C@H](O)[C@H]2NC(=O)Cn2cc(C3CCCCC3)nn2)cc(C)c1O (some centres unmarked) [A-281] | 1520 |  | 6.9 |
| CC(=O)N[C@H]1[C@H]([C@H](O)[C@H](O)CNC(=O)c2cc(C)c(O)c(C)c2)O[C@@](CCN2CCNC[C@]23CCN(C(=O)OC(C)(C)C)C3)(C(=O)O)C[C@@H]1O [A-013] | 35 | 11.4 |  |
| CC(=O)N[C@H]1[C@H]([C@H](O)[C@H](O)CNC(=O)c2cc(C)c(O)c(C)c2)O[C@@](CCN2CCOC[C@@]23CCN(c2cnccn2)C3)(C(=O)O)C[C@@H]1O [A-040] | 363 | 6.3 |  |
| CC(=O)N[C@H]1[C@H]([C@H](O)[C@H](O)CNC(=O)c2cc(C)c(O)c(C)c2)O[C@@](CC2OC(C)(C)O[C@@H]2c2cccc(C(=O)NCc3ccccc3)c2)(C(=O)O)C[C@@H]1O (some centres unmarked) [A-312] | 159 |  | 4.5 |
| Cc1cc(C(=O)NC[C@@H](O)[C@@H](O)[C@@H]2O[C@@](C/C=C/c3cccc(CNC(=O)c4cnccn4)c3)(C(=O)O)C[C@H](O)[C@H]2NC(=O)Cn2cc(C3CCCCC3)nn2)cc(C)c1O [A-270] | 2800 |  | 6.0 |
| CC(=O)N[C@H]1[C@H]([C@H](O)[C@H](O)CNC(=O)c2cc(C)c(O)c(C)c2)O[C@@](C[C@H]2COC[C@]3(CCN(C(=O)OC(C)(C)C)C3)N2)(C(=O)O)C[C@@H]1O [A-224] | 143 |  | 8.9 |
| CC(=O)N[C@H]1[C@H]([C@H](O)[C@H](O)CNC(=O)c2cc(C)c(O)c(C)c2)O[C@@](CCN2CCOC[C@@]23CCN(C(=O)OC(C)(C)C)C3)(C(=O)NC#N)C[C@@H]1O [A-366] | 2830 |  | 2.9 |
| CC(=O)N[C@H]1[C@H]([C@H](O)[C@H](O)CNC(=O)c2ccc(N3CCN(C)CC3)cc2)O[C@@](CCN2CCOC[C@@]23CCN(C(=O)OC(C)(C)C)C3)(C(=O)O)C[C@@H]1O [A-143] | 334 | 7.8 |  |

The remaining compounds from weak to strong by EC50 [1], led by results:

| EC50 [1] [nM] | DSF (dTmD) [2, 3] | DSF (dTmD) [2, 4] [°C] | SMILES |
| --- | --- | --- | --- |
| 27500 |  | 1.5 | CC(=O)N[C@H]1[C@H]2O[C@](C(=O)O)(C/C=C/CCC[C@@H](NC(=O)[C@@H]3CCCOC3)c3cccc(c3)COc3c(C)cc(cc3C)C(=O)NC[C@@H](O)[C@H]2O)C[C@@H]1O [A-354] |
| 10900 |  | 4.4 | Cc1cc(C(=O)NC[C@@H](O)[C@@H](O)[C@@H]2O[C@@](OCCOCCNC(=O)OCc3ccccc3)(C(=O)O)C[C@H](O)[C@H]2NC(=O)Cn2cc(C3CCCCC3)nn2)cc(C)c1O [A-323] |
| 7790 |  | 3.0 | CC(=O)N[C@H]1[C@H]([C@H](O)[C@H](O)CNC(=O)c2cc(Cl)c(O)c(Cl)c2)O[C@@](CC2OC(C)(C)O[C@@H]2c2cccc(C(=O)NCc3ccccc3)c2)(C(=O)O)C[C@@H]1O (some centres unmarked) [A-322] |
| 4000 |  | 3.5 | Cc1cc(C(=O)NC[C@@H](O)[C@@H](O)[C@@H]2O[C@@](C/C=C/c3cccc(CNC(=O)c4ccc(Cl)cc4)c3)(C(=O)O)C[C@H](O)[C@H]2NC(=O)Cn2cc(C3CCCCC3)nn2)cc(C)c1O [A-263] |
| 3240 |  | 3.5 | CC(=O)N[C@H]1[C@H]([C@H](O)[C@H](O)CNC(=O)c2cc(C)c(O)c(C)c2)O[C@@](CC2OC(C)(C)O[C@H]2c2ccccc2CNC(=O)OC(C)(C)C)(C(=O)O)C[C@@H]1O (some centres unmarked) [A-310] |
| 2840 |  | 2.2 | Cc1ccc(CNC(=O)C2CCCOC2)cc1/C=C/C[C@]1(C(=O)O)C[C@H](O)[C@@H](NC(=O)Cn2cc(C3CCCCC3)nn2)[C@H]([C@H](O)[C@H](O)CNC(=O)c2cc(C)c(O)c(C)c2)O1 (some centres unmarked) [A-286] |
| 1660 |  | 6.8 | Cc1cc(C(=O)NC[C@@H](O)[C@@H](O)[C@@H]2O[C@@](C/C=C/c3ccc4c(c3)C(NC(=O)C3CCCOC3)CC4)(C(=O)O)C[C@H](O)[C@H]2NC(=O)Cn2cc(C3CCCCC3)nn2)cc(C)c1O (some centres unmarked) [A-284] |
| 680 | 8.0 |  | CC(=O)N[C@H]1[C@H]([C@H](O)[C@H](O)CNC(=O)c2cc(C)oc2C(F)(F)F)O[C@@](CCN2CCOC[C@@]23CCN(C(=O)OC(C)(C)C)C3)(C(=O)O)C[C@@H]1O [A-160] |
| 610 | 6.2 |  | CC(=O)N[C@H]1[C@H]([C@H](O)[C@H](O)CNC(=O)c2c[nH]c(C)n2)O[C@@](CCN2CCOC[C@@]23CCN(C(=O)OC(C)(C)C)C3)(C(=O)O)C[C@@H]1O [A-139] |
| 510 | 7.4 |  | CC(=O)N[C@H]1[C@H]([C@H](O)[C@H](O)CNC(=O)c2ccc(O)c(NC=O)c2)O[C@@](CCN2CCOC[C@@]23CCN(C(=O)OC(C)(C)C)C3)(C(=O)O)C[C@@H]1O [A-152] |
| 196 | 10.1 |  | CC(=O)N[C@H]1[C@H]([C@H](O)[C@H](O)CNC(=O)c2ccc3nsnc3c2)O[C@@](CCN2CCOC[C@@]23CCN(C(=O)OC(C)(C)C)C3)(C(=O)O)C[C@@H]1O [A-153] |
| 156 | 8.4 |  | CCN(CC)C(=O)N1CC[C@@]2(COCCN2CC[C@]2(C(=O)O)C[C@H](O)[C@@H](NC(C)=O)[C@H]([C@H](O)[C@H](O)CNC(=O)c3cc(C)c(O)c(C)c3)O2)C1 [A-066] |
| 55 |  | 9.3 | CC(=O)NC1[C@H]([C@H](O)[C@H](O)CNC(=O)c2cc(C)c(O)c(C)c2)O[C@@](CC(=O)N2CCOC[C@]23CCN(C(=O)OC(C)(C)C)C3)(C(=O)O)C[C@@H]1O (some centres unmarked) [A-220] |
| 50 | 11.5 |  | CC(=O)N[C@H]1[C@H]([C@H](O)[C@H](O)CNC(=O)c2ccc3[nH]nc(F)c3c2)O[C@@](CCN2CCOC[C@@]23CCN(C(=O)OC(C)(C)C)C3)(C(=O)O)C[C@@H]1O [A-128] |
| 47 | 12.1 |  | CC(=O)N[C@H]1[C@H]([C@H](O)[C@H](O)CNC(=O)c2cc(C)c(F)c(C)c2)O[C@@](CCN2CCOC[C@@]23CCN(C(=O)OC(C)(C)C)C3)(C(=O)O)C[C@@H]1O [A-192] |
| 34 | 11.1 |  | CC(=O)N[C@H]1[C@H]([C@H](O)[C@H](O)CNC(=O)c2c[nH]c(C)c2)O[C@@](CCN2CCOC[C@@]23CCN(C(=O)OC(C)(C)C)C3)(C(=O)O)C[C@@H]1O [A-113] |
| 29 | 13.6 |  | CC(=O)N[C@H]1[C@H]([C@H](O)[C@H](O)CNC(=O)c2ccc3occc3c2)O[C@@](CCN2CCOC[C@@]23CCN(C(=O)OC(C)(C)C)C3)(C(=O)O)C[C@@H]1O [A-121] |
| 7 | 15.1 |  | CC(=O)N[C@H]1[C@H]([C@H](O)[C@H](O)CNC(=O)c2cc(Br)c(O)c(Br)c2)O[C@@](CCN2CCOC[C@@]23CCN(C(=O)OC(C)(C)C)C3)(C(=O)O)C[C@@H]1O [A-115] |
